Source: paper PMC8838847, “Design, Synthesis and Cytotoxicity of Thiazole-Based Stilbene Analogs as Novel DNA Topoisomerase IB Inhibitors” (Molecules, 2022)

Legend:
[1] = system: human colon cancer (HCT116) cells; assay: MTT cytotoxicity assay, HCT116; format: cell-based; settings: five doses 0.01-100 µM
Procedure: (§1) The cytotoxicity of the desired compounds was assessed through MTT assay against two human cancer cell lines, human breast cancer (MCF-7) and colon cancer (HCT116), and one normal cell line, human embryonic kidney 293T (HEK293T). CPT and etoposide (VP-16) were used as positive controls. The compounds were incubated with cells for 72 h in a five-dose assay ranging from 0.01 to 100 µΜ. After the drug treatments, MTT solution was added to test the percentage growth of tumor cells.
(§2) The cells were cultured on RPMI 1640 Medium at 37 °C in a humidified atmosphere with 5% CO2. The cytotoxicities of the target compounds were evaluated through MTT assay against two human cancer cell lines (human breast cancer MCF-7 and human colon cancer HCT116). For the compound treatment experiments, the cancer cells were treated with the compounds (pre-dissolved in DMSO) via a five-dose assay ranging from 10^−8 to 10^−4 M. After incubation for 72 h at 37 °C, MTT solution (20 μL, 2.5 mg/mL) in PBS (PBS without MTT as the blank) was added to each well of the culture plate. After incubation for 4 h, the formazan crystal formed in the well was dissolved in 100 μL of DMSO for an optical density of 570 nm. The IC50 value was calculated using nonlinear regression analysis (GraphPad Prism). Every experiment was conducted three times, independently.

calf thymus Top1 = target: T1, calf thymus Top1 (Bos taurus, UniProt F1MN93); assay: Top1-mediated DNA relaxation assay; format: biochemical; settings: for supercoiled DNA remaining: compound at 125 μM; for Relaxation Assay (Top1 inhibitory activity): compounds at 50 µM, semi-quantitative, relative to CPT at 50 µM
T1 construct: 1 unit of calf thymus Top1; from tissue; host or cells: calf thymus
T1 sequence (F1MN93 1-767): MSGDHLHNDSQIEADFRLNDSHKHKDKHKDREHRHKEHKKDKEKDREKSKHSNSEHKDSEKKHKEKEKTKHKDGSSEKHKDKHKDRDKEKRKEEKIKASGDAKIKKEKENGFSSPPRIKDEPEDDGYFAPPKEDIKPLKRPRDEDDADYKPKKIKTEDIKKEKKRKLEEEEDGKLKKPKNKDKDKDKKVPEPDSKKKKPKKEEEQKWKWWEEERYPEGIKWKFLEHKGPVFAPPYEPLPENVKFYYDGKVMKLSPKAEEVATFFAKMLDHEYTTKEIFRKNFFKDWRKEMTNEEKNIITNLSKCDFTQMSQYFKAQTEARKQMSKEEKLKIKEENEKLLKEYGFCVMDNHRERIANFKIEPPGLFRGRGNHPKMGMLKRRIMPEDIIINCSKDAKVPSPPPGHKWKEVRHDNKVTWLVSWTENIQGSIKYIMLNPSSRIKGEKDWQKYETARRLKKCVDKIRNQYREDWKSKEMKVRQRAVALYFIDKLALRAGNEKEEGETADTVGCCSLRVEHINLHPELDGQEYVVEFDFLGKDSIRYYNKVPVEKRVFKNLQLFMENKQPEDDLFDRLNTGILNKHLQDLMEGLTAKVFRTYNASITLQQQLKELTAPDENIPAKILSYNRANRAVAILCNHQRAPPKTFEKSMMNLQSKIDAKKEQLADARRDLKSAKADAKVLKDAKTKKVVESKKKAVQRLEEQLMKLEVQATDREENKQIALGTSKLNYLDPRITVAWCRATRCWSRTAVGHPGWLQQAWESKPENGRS
Procedure: The synthesized compounds 6–37 were evaluated for Top1 inhibitory activity by measurement of the Top1-mediated DNA relaxation assay. The compounds were tested at 50 µΜ using CPT as positive control, and the results were semi-quantitatively expressed relative to CPT at 50 µΜ as follows: ++++, more than 80% activity; +++, between 40% and 79% activity; ++, between 10% and 39% activity; +, less than 10% activity. […] In phenyl A, the 4-position halogen (X) remarkably affected the inhibition against Top1. […] In phenyl B, the introduction of substituents at the 3-position was beneficial for the Top1 inhibition, and the derivatives presented good tolerance of the 3-substituents, since compounds 8 (++++) and 13 (+++) with electron-donating -Me or -OMe and also compound 19 (+++) with electron-withdrawing -Br had good inhibition against Top1. For substituents at the 4-position, the strong electron-withdrawing -CF3 (10, +++) and -F (15, +++) increased the Top1 inhibitory activity compared to compound 6 (R = H), while the weak electron-withdrawing -Cl (17, +) and the electron-donating -Me (9, +) and -OMe (14, +) decreased the activity, with the exception of tert-Bu (11, +++).
As previously mentioned, compound 8 had the best inhibition activity against Top1, and therefore was selected for further investigation. A semi-quantitative Top1-mediated relaxation assay of compound 8 was performed at concentrations of 0.2, 1, 5, 25 and 125 μM.
The compounds were tested for their Top1 inhibitory activity using a Top1-mediated relaxation assay. Briefly, the reaction mixture (20 μL) with 0.5 μg of supercoiled pBR322 DNA in relaxation buffer (10 mM Tris-HCl, pH 7.5, 50 mM KCl, 5 mM MgCl2, 15 μg/mL BSA, 40 μg/mL DTT) was incubated with 1 unit of calf thymus Top1 in the absence or in the presence of the compound for 30 min at 37 °C. Then, the reaction solution was added with 6 × loading buffer (4 μL) and was analyzed using a 0.8% agarose gel in TBE buffer at 4.6 V/cm for 1.5 h. Gel was stained with 1 × GelRed for 30 min and subsequently visualized with a UV transilluminator.

[2] = system: human breast cancer (MCF-7) cells; assay: MTT cytotoxicity assay, MCF-7; format: cell-based; settings: five doses 0.01-100 µM
Procedure: as §1, §2

[3] = MTT cytotoxicity assay, HEK293T normal cells; format: cell-based, human; settings: human, HEK293T cells (normal cell line)
Procedure: as §1, §2

[4] = system: human embryonic kidney 293T (HEK293T) cells; assay: MTT cytotoxicity assay, HEK293T normal cells; format: cell-based; settings: 72 h, normal cell line
Procedure: as §1, §2

[5] = semi-quantitative relaxation assay (Figure 3)

Row | Structure (SMILES) | IC50 ([1]; Homo sapiens, HCT-116, 72 h) [µM] | supercoiled DNA remaining (calf thymus Top1; [5]) [%] | IC50 ([2]; Homo sapiens, MCF7, 72 h) [µM] | IC50 at 72 h [3] [µM] | melting point [°C] | Top1 inhibition compared with CPT (calf thymus Top1; compound at 25 μM, semi-quantitative relaxation assay (Figure 3)) | IC50 [4] [µM] | Relaxation Assay (Top1 inhibitory activity) (calf thymus Top1) | IC50 ([1]; 72 h) [µM] | IC50 ([2]; 72 h) [µM]
1 | CC[C@@]1(O)C(=O)OCc2c1cc1n(c2=O)Cc2cc3ccccc3nc2-1 [CPT, camptothecin, reference compound] | 0.012 ± 0.001 | 58 | 0.34 ± 0.026 | 0.1 ± 0.003 |  |  |  |  |  | 
2 | Cc1cccc(/C=C/c2nc(-c3ccc(F)cc3)cs2)c1 [Compound 8, (E)-2-(3-methylstyryl)-4-(4-fluorophenyl)thiazole] |  | 75 |  | > 10 | 148 to 149 | equipotent Top1 inhibition with CPT | 10.2 ± 0.68 |  |  | 
3 | CC(C)=CCOc1ccc(/C=C/c2nc(-c3ccc(Br)cc3)cs2)cc1 [Compound 37, (E)-4-(4-bromophenyl)-2-(4-((3-methylbut-2-en-1-yl)oxy)styryl)thiazole] | > 100 |  | > 100 |  | 134 to 135 |  |  | + (less than 10% activity) |  | 
4 | Cc1ccc(/C=C/c2nc(-c3ccc(F)cc3)cs2)cc1 [Compound 9, (E)-2-(4-methylstyryl)-4-(4-fluorophenyl)thiazole] | 21.9 ± 4.29 |  | 65.5 ± 3.11 |  | 164 to 166 |  |  | + (less than 10% activity) |  | 
5 | COc1cccc(/C=C/c2nc(-c3ccc(Br)cc3)cs2)c1 [Compound 31, (E)-4-(4-bromophenyl)-2-(3-methoxystyryl)thiazole] | 40.3 ± 7.8 |  | 45.8 ± 4.47 |  | 112 to 113 |  |  | + (less than 10% activity) |  | 
6 | CC(C)(C)c1ccc(/C=C/c2nc(-c3ccc(Cl)cc3)cs2)cc1 [Compound 23, (E)-4-(4-chlorophenyl)-2-(4-(tert-butyl)styryl)thiazole] | < 5 |  | < 10 | > 10 | 74 to 75 |  | 18.7 ± 1.37 | + (less than 10% activity) | 2.87 ± 0.26 | 7.22 ± 0.4
7 | Cc1ccccc1/C=C/c1nc(-c2ccc(Cl)cc2)cs1 [Compound 21, (E)-4-(4-chlorophenyl)-2-(2-methylstyryl)thiazole] | 41.7 ± 1.92 |  | 39.5 ± 1.06 |  | 83 to 84 |  |  | + (less than 10% activity) |  | 
8 | COc1ccc(/C=C/c2nc(-c3ccc(F)cc3)cs2)cc1 [Compound 14, (E)-2-(4-methoxystyryl)-4-(4-fluorophenyl)thiazole] | > 100 |  | > 100 |  | 124 to 125 |  |  | + (less than 10% activity) |  | 
9 | COc1ccccc1/C=C/c1nc(-c2ccc(Br)cc2)cs1 [Compound 30, (E)-4-(4-bromophenyl)-2-(2-methoxystyryl)thiazole] | > 100 |  | > 100 |  | 110 to 112 |  |  | + (less than 10% activity) |  | 
10 | Clc1ccc(-c2csc(/C=C/c3ccccc3Cl)n2)cc1 [Compound 25, (E)-4-(4-chlorophenyl)-2-(2-chlorostyryl)thiazole] | 51 ± 3.7 |  | 48.5 ± 6.67 |  | 109 to 110 |  |  | + (less than 10% activity) |  | 
11 | CC(C)(C)c1ccc(/C=C/c2nc(-c3ccc(F)cc3)cs2)cc1 [Compound 11, (E)-2-(4-tert-butylstyryl)-4-(4-fluorophenyl)thiazole] |  |  | < 10 | > 10 | 146 to 148 |  | 12 ± 2.45 |  |  | 6.31 ± 0.51
